From PMC3841161, “De Novo Design and Synthesis of Ultra-Short Peptidomimetic Antibiotics Having Dual Antimicrobial and Anti-Inflammatory Activities” (PLoS ONE, 2013) come the findings set out here.

Residues, ends and D or L forms follow the SMILES beside them. No end group written: not given here.

The test system of one assay is E. coli [KCTC 1682]. The format is cell-based, Escherichia coli. Particulars: KCTC 1682, 20 h. How it is done:
(§1) The antimicrobial activity of the peptides against two Gram-positive bacterial strains and two Gram-negative bacterial strains was examined using the broth microdilution method in sterile 96-well plates. Aliquots (100 µL) of a bacterial suspension at 2×10^6 colony-forming units (CFU)/mL in 1% peptone were added to 100 µL of the peptide solution (serial two-fold dilutions in 1% peptone). After incubation for 18−20 h at 37°C, bacterial growth inhibition was determined by measuring the absorbance at 600 nm with a Microplate Autoreader EL 800 (Bio-Tek Instruments, VT). The minimal inhibitory concentration (MIC) was defined as the minimum peptide concentration inhibited bacteria growth. Two types of Gram-positive bacteria (S. epidermidis [KCTC 1917] and S. aureus [KCTC 1621]) and two types of Gram-negative bacteria (E. coli [KCTC 1682] and P. aeruginosa [KCTC 1637]) were procured from the Korean Collection for Type Cultures (KCTC) at the Korea Research Institute of Bioscience and Biotechnology (KRIBB). MRSA samples (CCARM 3089, CCARM 3090, and CCARM 3095) were obtained from the Culture Collection of Antibiotic-Resistant Microbes (CCARM) at Seoul Women's University (Seoul, Korea).

Another assay deals with MRSA 1 [CCARM 3089]. It counts as cell-based, methicillin-resistant Staphylococcus aureus. Conditions: CCARM 3089, 20 h. The protocol:
as §1

In a further assay the test system is MRSA 2 [CCARM 3090]. It counts as cell-based, methicillin-resistant Staphylococcus aureus. Conditions: CCARM 3090, 20 h. How it is done: as §1
The next assay relates to MRSA 3 [CCARM 3095]. The format is cell-based, methicillin-resistant Staphylococcus aureus. Conditions: CCARM 3095, 20 h. The protocol: as §1
In assay [1] the test system is four bacterial strains (E. coli, P. aeruginosa, S. epidermidis, S. aureus). The format is cell-based. Conditions: 20 h. The protocol: (§2) The prokaryotic selectivity of our designed HDAMPs is defined by the therapeutic index (TI) as a measure of the relative safety of the drug. It is a measure of a peptide's capability to differentiate any pathogen from a host cell. The TI value of each peptide was calculated as the ratio of the HC10 (the peptide concentration that produces 10% hemolysis toward hRBCs) to the geometric mean [GM; the geometric mean of the minimal inhibitory concentration (MIC) against four selected bacterial strains]. Larger values of TI correspond to greater prokaryotic selectivity.
as §1

The test system of assay [2] is S. epidermidis [KCTC 1917]. It counts as cell-based, Staphylococcus epidermidis. Conditions: KCTC 1917, 20 h. The protocol:
as §1

Assay [3] relates to P. aeruginosa [KCTC 1637]. The format is cell-based, Pseudomonas aeruginosa. Conditions: KCTC 1637, 20 h. The protocol: as §1
The test system of the next assay is S. aureus [KCTC 1621]. The format is cell-based, Staphylococcus aureus. Conditions: KCTC 1621, 20 h. How it is done:
as §1

Assay [4] concerns hRBCs versus four bacterial strains. Put plainly: Prokaryotic selectivity (therapeutic index, HC10/GM). Particulars: ratio of HC10 to GM; 512 µg/mL used for HC10 >256 and 128 µg/mL for MIC >64. The protocol:
as §2

Turning to `N=C(N)NCCC[C@H](NC(=O)[C@H](Cc1c[n+](CCCc2ccccc2)cn1CCCc1ccccc1)NC(=O)[C@@H](N)CCCNC(=N)N)C(N)=O` [HDAMP-2], the “Minimal Inhibitory Concentration (MIC) E. coli [KCTC 1682]” value in the assay on E. coli [KCTC 1682] was 4 (5.7) µg/mL. Moreover, the “Minimal Inhibitory Concentration (MIC) MRSA 1 [CCARM 3089]” value in the assay on MRSA 1 [CCARM 3089] was 16 (22.7) µg/mL. In addition, the “Minimal Inhibitory Concentration (MIC) MRSA 2 [CCARM 3090]” value in the assay on MRSA 2 [CCARM 3090] was 32 (45.5) µg/mL. The “Minimal Inhibitory Concentration (MIC) MRSA 3 [CCARM 3095]” value in the assay on MRSA 3 [CCARM 3095] is 16 (22.7) µg/mL. In addition, the “GM, geometric mean of the MIC values against four bacterial strains” value (from here on “GM, geometric mean of the MIC values”) in [1] is 9 (12.8) µg/mL. Besides, the “Minimal Inhibitory Concentration (MIC) S. epidermidis [KCTC 1917]” value in assay [2] is 8 (11.4) µg/mL. For the same compound, the “Minimal Inhibitory Concentration (MIC) P. aeruginosa [KCTC 1637]” value in [3] is given as 16 (22.7) µg/mL. For the same compound, the “Minimal Inhibitory Concentration (MIC) S. aureus [KCTC 1621]” value with S. aureus [KCTC 1621] is 8 (11.4) µg/mL. In assay [4], the “TI (HC10/GM), therapeutic index” value is reported as 56.9.
In the case of `N=C(N)NCCC[C@H](NC(=O)[C@H](Cc1cncn1CCCCCCCc1ccccc1)NC(=O)[C@@H](N)CCCNC(=N)N)C(N)=O` [HDAMP-4], the “Minimal Inhibitory Concentration (MIC) E. coli [KCTC 1682]” value in the assay with E. coli [KCTC 1682] was 32 (49.9) µg/mL. Also, the “Minimal Inhibitory Concentration (MIC) MRSA 1 [CCARM 3089]” value in the assay with MRSA 1 [CCARM 3089] is listed as 16 (24.9) µg/mL. Moreover, the “Minimal Inhibitory Concentration (MIC) MRSA 2 [CCARM 3090]” value in the assay on MRSA 2 [CCARM 3090] is reported as 16 (24.9) µg/mL. Also, in the assay on MRSA 3 [CCARM 3095], the “Minimal Inhibitory Concentration (MIC) MRSA 3 [CCARM 3095]” value is 16 (24.9) µg/mL. Moreover, the “GM, geometric mean of the MIC values” value in assay [1] is 17.5 (27.3) µg/mL. Also, the “Minimal Inhibitory Concentration (MIC) S. epidermidis [KCTC 1917]” value in [2] is on record as 2 (3.1) µg/mL. In [3], the “Minimal Inhibitory Concentration (MIC) P. aeruginosa [KCTC 1637]” value is on record as 32 (49.9) µg/mL. The “Minimal Inhibitory Concentration (MIC) S. aureus [KCTC 1621]” value in the assay on S. aureus [KCTC 1621] was 4 (6.2) µg/mL. In addition, the “TI (HC10/GM), therapeutic index” value in [4] is listed as 29.3.
For the compound `N=C(N)NCCC[C@H](NC(=O)[C@H](Cc1c[nH]c2ccccc12)NC(=O)[C@@H](N)CCCNC(=N)N)C(N)=O` [RWR-NH2, reference compound] (H-Arg-Trp-Arg-NH2), the “Minimal Inhibitory Concentration (MIC) E. coli [KCTC 1682]” value with E. coli [KCTC 1682] was >64 (>124) µg/mL. Also, the “GM, geometric mean of the MIC values” value in assay [1] is reported as >64 (>124) µg/mL. Further, the “Minimal Inhibitory Concentration (MIC) S. epidermidis [KCTC 1917]” value in assay [2] is given as >64 (>124) µg/mL. Moreover, the “Minimal Inhibitory Concentration (MIC) P. aeruginosa [KCTC 1637]” value in assay [3] is recorded as >64 (>124) µg/mL. For the same compound, the “Minimal Inhibitory Concentration (MIC) S. aureus [KCTC 1621]” value in the assay on S. aureus [KCTC 1621] is >64 (>124) µg/mL.
In the case of “WRWRWR-NH2 [(WR)3-NH2, reference compound]”, the “Minimal Inhibitory Concentration (MIC) E. coli [KCTC 1682]” value in the assay with E. coli [KCTC 1682] is 4 (3.8) µg/mL. Moreover, in [1], the “GM, geometric mean of the MIC values” value is 9 (8.6) µg/mL. Besides, the “Minimal Inhibitory Concentration (MIC) S. epidermidis [KCTC 1917]” value in assay [2] is listed as 8 (7.7) µg/mL. Further, the “Minimal Inhibitory Concentration (MIC) P. aeruginosa [KCTC 1637]” value in assay [3] is 16 (15.3) µg/mL. Also, the “Minimal Inhibitory Concentration (MIC) S. aureus [KCTC 1621]” value in the assay on S. aureus [KCTC 1621] is 8 (7.7) µg/mL. In assay [4], the “TI (HC10/GM), therapeutic index” value stood at 56.9.
